Data on 13 molecules can be found in patent US20130136809A1, “7-HYRDROXYFRULLANOLIDE ITS ANALOGS FOR PREVENTION CONTROL AND TREATMENT OF METABOLIC DISORDERS” (LAILA NUTRACEUTICALS, priority 2009, published 2013).

Test [1] deals with 3T3-L1 pre-adipocyte cells. Kind of test: Inhibition of lipid accumulation in differentiated adipocytes (Oil Red O). It is filed as cell-based, mouse. The following applies: 3T3-L1 adipocytes; for inhibition at 2.5 µg/mL: 2.5 μg/mL. The protocol: One hundred thousand 3T3-L1 […] pre-adipocyte cells in Dulbecco's Modified Eagles Medium (DMEM) containing 10% Fetal Bovine Serum (FBS) were taken into each well of a 24-well plate and incubated for 48 h at 37° C. and 5% CO2. The differentiation of pre-adipocyte cells was initiated in a differentiation medium containing 10 μg/ml insulin, 1.0 μM dexamethasone, and 0.5 mM isobutylmethylxanthine (IBMX) for 48 h. After this the medium was replaced by DMEM containing 10 ug/ml insulin and incubated for 3 days. Then the differentiating cells were treated with […] of 7-hydroxyfrullanolide (1) or different natural analogs (structure numbers 3 to 11) or semi-synthetic analogs (structure numbers 12 to 25) of 7-HF. The cells were maintained in the medium for another 3-5 days. The cells incubated with 0.1% DMSO were considered as the vehicle control. After the incubation period, cells were washed with phosphate buffered saline (PBS) and fixed with 10% buffered formalin for 1 h at room temperature. One small aliquot of cell suspension was separated for cell counting in hemocytometer chamber. Fixed cells were stained with Oil Red O solution to measure the cellular neutral lipid accumulation. Briefly, cells were washed with PBS, fixed with 10% buffered formalin and stained with Oil Red O solution (0.5 g in 100 ml isopropanol) for […]. After removing the staining solution, the dye retained in the cells will be eluted into isopropanol and OD measured at 550 nm. The inhibition of fat accumulation in the treated cells was compared with the mock treated differentiated adipocytes. The treated and control cells were also analyzed and compared for inhibition of lipid accumulation visually under microscope and recorded digitally in suitable image capture system. The anti-adipogenic activity by 7-HF is depicted in Figure I and the percentage inhibition of lipid accumulation shown by 7-HF and its natural and semi-synthetic analogs is summarized in Table-1.

For test [2], the system named is 3T3-L1 pre-adipocyte cells. The experiment in a line: Pro-lipolytic activity in differentiated adipocytes (free glycerol release). It is filed as cell-based, mouse. The following applies: increase in glycerol release. As to the method: The lipolytic activity was assessed in mature adipocytes as per the procedure of Chemicon International, USA, by measuring free glycerol secreted into the culture medium. One hundred thousand 3T3-L1 […] pre-adipocyte cells in Dulbecco's Modified Eagles Medium (DMEM) containing 10% Fetal Bovine Serum (FBS) were taken into each well of a 24-well plate and incubated for 48 h at 37° C. and 5% CO2. The differentiation of pre-adipocyte cells was initiated in a differentiation medium containing 10 µg/ml insulin, 1.0 µM dexamethasone, and 0.5 mM isobutylmethylxanthine (IBMX). The cells were differentiated for 5 days and then the culture medium was removed. The monolayer was washed twice with wash solution (Hank's balanced salt solution), and then 250 µL of incubation solution (Hank's balanced salt solution plus 2% bovine serum albumin) was added to the wells in triplicate in presence or absence of 7-hydroxyfrullanolide or its analogs or the extracts containing 7-HF, and the cells were further incubated for 16 h. To measure lipolysis, 200 μL of free glycerol assay reagent was added to 25 µL of culture supernatants and controls containing glycerol standard. The samples and the controls were incubated for 15 min, and the absorbance was read at 540 nm. A standard curve constructed from the glycerol was used to calculate the concentration of free glycerol in the culture supernatants. The percentage increase in glycerol concentration in the sample solutions compared to the control containing the known concentrations of glycerol corresponds to the percentage acceleration of lipolysis by test compound.

Broadly, the inhibition is the relative decrease from the control value, in per cent. Take `CC1=CCC[C@]2(C)CCC3=C(C=O)C(=O)OC3=C12` [Compound-12, (R)-2,4,5,5a,6,7-hexahydro-5a,9-dimethyl-2-oxonaphtho[1,2-b]furan-3-carbaldehyde]: the inhibition at 2 µg/mL in test [1] (Homo sapiens, 2.0 μg/mL) is 55%. The “% acceleration of lipolysis” value in test [2] (5 μg/mL) was 45.2%. `C=C1C(=O)O[C@H]2C3=C(C)C(O)CC[C@]3(C)CC[C@@]12O` (stereo partly drawn) [Compound-10, (3aR,5aR,9bS)-3,3a,4,5,5a,6,7,8-octahydro-3a,8-dihydroxy-5a,9-dimethyl-3-methylenenaphtho[1,2-b]furan-2(9bH)-one]: the inhibition at 2 µg/mL in test [1] (Homo sapiens, 2.0 μg/mL) is 45%. Same read-out and setting: the result for `CC1(O)CCC[C@]2(C)CCC3=C(CN4CCCCC4)C(=O)OC3=C12` (stereo partly drawn) [Compound-20, (5aR)-5,5a,6,7,8,9-hexahydro-9-hydroxy-5a,9-dimethyl-3-((piperidin-1-yl)methyl)naphtho[1,2-b]furan-2(4H)-one] reads 7%. For the molecule `C=C1C(=O)O[C@@H]2[C@@]1(O)CC[C@@]1(C)CCCC(=C)[C@]21OO` [Compound-3, (3aR,5aR,9aR,9bR)-decahydro-9a-hydroperoxy-3a-hydroxy-5a-methyl-3,9-dimethylenenaphtho[1,2-b]furan-2(9bH)-one], in test [1] (Homo sapiens), the inhibition at 2.5 µg/mL was 40.5%. The “% acceleration of lipolysis” value in test [2] (5 μg/mL) is on record as 39.6%. As for `C=C1C(=O)OC2C3=C(C)CCCC3(C)CCC12` (centres unmarked) [Compound-1, 3,3a,4,5,5a,6,7,8-octahydro-5a,9-dimethyl-3-methylenenaphtho[1,2-b]furan-2(9bH)-one], the inhibition at 2.5 µg/mL in test [1] (Homo sapiens) came to 19.4%. In addition, in test [2] (10 μg/mL), the “% acceleration of lipolysis” value was determined as 44.6%. For `C=C1C(=O)O[C@H]2C3=C(C)C(=O)CC[C@]3(C)CC[C@@]12O` [Compound-11, (3aR,5aS,9bS)-3a,4,5,5a,6,7-hexahydro-3a-hydroxy-5a,9-dimethyl-3-methylenenaphtho[1,2-b]furan-2,8(3H,9bH)-dione], in test [1] (Homo sapiens, 2.0 μg/mL), the inhibition at 2 µg/mL worked out at 8%. Still for that read-out and setting: the result for `CC1=CCC[C@]2(C)CCC3=C(CBr)C(=O)OC3=C12` [Compound-14, (R)-3-(bromomethyl)-5,5a,6,7-tetrahydro-5a,9-dimethylnaphtho[1,2-b]furan-2(4H)-one] reads 14%. As to `CC1=C2[C@@H]3OC(=O)C(CN4CCOCC4)[C@]3(O)CC[C@@]2(C)CCC1O` (stereo partly drawn) [Compound-18, (3aR,5aR,9bS)-3,3a,4,5,5a,6,7,8-octahydro-3a,8-dihydroxy-5a,9-dimethyl-3-(morpholinomethyl)naphtho[1,2-b]furan-2(9bH)-one], in test [1] (Homo sapiens), the inhibition at 2.5 µg/mL turned out to be 133%.

As for `C=C1C(=O)OC2C1(O)CCC1(C)CCCC3(C)OC213` (centres unmarked) [Compound-13, 4,5-epoxy-7-hydroxyfrullanolide], in test [1] (2.0 μg/mL), the “% inhibition of lipid accumulation” value was 79.7%. Moreover, in test [2] (5 μg/mL), the “% acceleration of lipolysis” value turned out to be 52.8%. Regarding `CC1=C2[C@@H]3OC(=O)C(CN4CCNCC4)[C@]3(O)CC[C@@]2(C)CCC1` (stereo partly drawn) [Compound-22, (3aR,5aR,9bS)-3,3a,4,5,5a,6,7,8-octahydro-3a-hydroxy-5a,9-dimethyl-3-((piperazin-1-yl)methyl)naphtho[1,2-b]furan-2(9bH)-one], in test [1] (Homo sapiens, 1.0 μg/mL), the inhibition at 1 µg/mL is 15%. In the case of `CC1=C2[C@@H]3OC(=O)C(CN4CCCCC4)[C@]3(O)CC[C@@]2(C)CCC1` (stereo partly drawn) [Compound-19, (3aR,5aR,9bS)-3,3a,4,5,5a,6,7,8-octahydro-3a-hydroxy-5a,9-dimethyl-3-((piperidin-1-yl)methyl)naphtho[1,2-b]furan-2(9bH)-one], the inhibition at 2 µg/mL in test [1] (Homo sapiens, 2.0 μg/mL) came to 23.3%. For “Piperazine Bis-7-hydroxyfrullanolide [Compound-23]”, the “% inhibition of lipid accumulation” value in test [1] (1.0 μg/mL) is 15.2%. For `CC1=C2[C@@H]3OC(=O)C(CN4CCOCC4)[C@]3(O)CC[C@@]2(C)CCC1` (stereo partly drawn) [Compound-17, (3aR,5aR,9bS)-3,3a,4,5,5a,6,7,8-octahydro-3a-hydroxy-5a,9-dimethyl-3-(morpholinomethyl)naphtho[1,2-b]furan-2(9bH)-one], the inhibition at 2 µg/mL in test [1] (Homo sapiens, 2.0 μg/mL) worked out at 36.2%.
